# BindingDB's records for doi:10.1016/j.bmcl.2006.12.086 (Valeant Pharmaceuticals Research and Development, 2007)
# Biological target: Serine/threonine-protein kinase pim-1 (Homo sapiens, UniProt P11309)
# Assay: Radioactive Filter Plate Assay
# Details: pH 7.5; 23 °C
# Description: PIM-1 kinase activity was evaluated using calf thymus histones as the substrate in a 96-well filter plate format. After incubation, the plate was washed and dried. The scintillation cocktail was added and the radioactivity counted on a TopCount plate reader (Perkin-Elmer).
# Chain of Serine/threonine-protein kinase pim-1 (P11309 whole entry): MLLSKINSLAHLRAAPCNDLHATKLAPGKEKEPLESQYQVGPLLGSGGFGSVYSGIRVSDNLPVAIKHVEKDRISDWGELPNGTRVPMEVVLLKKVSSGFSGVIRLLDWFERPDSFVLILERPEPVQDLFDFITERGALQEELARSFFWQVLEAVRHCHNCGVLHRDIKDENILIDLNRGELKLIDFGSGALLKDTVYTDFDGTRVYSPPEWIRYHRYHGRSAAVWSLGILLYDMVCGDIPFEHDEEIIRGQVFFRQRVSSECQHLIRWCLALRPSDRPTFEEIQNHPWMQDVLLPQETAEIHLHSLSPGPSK
row,SMILES,IC50 [nM]
1,"N#Cc1c(-c2cccs2)c2c([nH]c1=O)-c1ccccc1SC2 [4-oxo-6-(thiophen-2-yl)-9-thia-3-azatricyclo[8.4.0.0^{2,7}]tetradeca-1(10),2(7),5,11,13-pentaene-5-carbonitrile]",1490
2,"N#Cc1c(-c2cccs2)cc(-c2cccs2)nc1O [2-oxo-4,6-bis(thiophen-2-yl)-1,2-dihydropyridine-3-carbonitrile]",990
3,"N#Cc1c(-c2cccs2)cc(C(F)(F)F)[nH]c1=O [2-oxo-4-(thiophen-2-yl)-6-(trifluoromethyl)-1,2-dihydropyridine-3-carbonitrile]",3540
4,"N#Cc1c(-c2cccs2)c2c([nH]c1=O)-c1ccccc1OC2 [4-oxo-6-(thiophen-2-yl)-9-oxa-3-azatricyclo[8.4.0.0^{2,7}]tetradeca-1(14),2(7),5,10,12-pentaene-5-carbonitrile]",460

# The remaining lines, values ahead:
row,IC50 [nM],SMILES
1,16000,"N#Cc1c(C(F)(F)F)cc(-c2ccco2)[nH]c1=O [6-(furan-2-yl)-2-oxo-4-(trifluoromethyl)-1,2-dihydropyridine-3-carbonitrile]"
2,870,"N#Cc1c(-c2ccco2)c2c([nH]c1=O)-c1ccccc1OC2 [6-(furan-2-yl)-4-oxo-9-oxa-3-azatricyclo[8.4.0.0^{2,7}]tetradeca-1(14),2(7),5,10,12-pentaene-5-carbonitrile]"
